Literature values, collected in patent US20220354121A1, “EXTERNALLY HEATED GEL REPELLENT” (Lamplight Farms Incorporated, priority 2021, published 2022).

Test system: insect
Details: release into local atmosphere

In the case of `C/C=C/C1C(C(=O)OCc2c(F)c(F)c(COC)c(F)c2F)C1(C)C` (stereo not shown) [metofluthrin], the “metofluthrin release known to be sufficient for local repellency purposes” value is given as 7 to 12 mg/h.
